In patent US5213974A, “Fermentation process for preparing antibiotics mureidomycins A, B, C and D” (priority 1986, dated 1993):
Values after ≈ are worked out from the molar mass of the structure shown.

Tests used:
[1] = test system: gram-negative bacteria, particularly bacteria of the genus Pseudomonas; experiment: Antibacterial activity, summary of the MIC data; assay type: cell-based
Description: (§1) The minimal inhibitory concentrations (MIC) of mureidomycins A, B, C and D against various gram-positive and gram-negative bacteria were determined by the two-fold agar dilution method, using a Mueller-Hinton agar medium (produced by Difco).
From the above data, mureidomycins A, B, C and D are active against gram-negative bacteria, particularly against bacteria of the genus Pseudomonas.

[2] = test system: Pseudomonas aeruginosa SANK 73279; experiment: MIC, two-fold agar dilution method, Mueller-Hinton agar; assay type: cell-based
Description: as §1

[3] = test system: Pseudomonas aeruginosa SANK 70479; experiment: as above; assay type: cell-based
Description: as §1

[4] = test system: Pseudomonas aeruginosa SANK 73375; experiment: as above; assay type: cell-based
Description: as §1

[5] = test system: Klebsiella pneumoniae PCI 602; experiment: as above; assay type: cell-based
Description: as §1

[6] = test system: Pseudomonas aeruginosa SANK 75175; experiment: as above; assay type: cell-based
Description: as §1

[7] = test system: Pseudomonas aeruginosa SANK 75775; experiment: as above; assay type: cell-based
Description: as §1

[8] = test system: Pseudomonas aeruginosa NCTC 10490; experiment: as above; assay type: cell-based
Description: as §1

[9] = test system: Pseudomonas aeruginosa NRRLB 1000; experiment: as above; assay type: cell-based
Description: as §1

[10] = test system: Serratia marcescens SANK 73060; experiment: as above; assay type: cell-based
Description: as §1

[11] = test system: Pseudomonas aeruginosa SANK 73379; experiment: as above; assay type: cell-based
Description: as §1

[12] = test system: Pseudomonas aeruginosa SANK 70579; experiment: as above; assay type: cell-based
Description: as §1

[13] = test system: Pseudomonas aeruginosa ATCC 13388; experiment: as above; assay type: cell-based
Description: as §1

[14] = test system: Staphylococcus aureus FDA 209P JC-1; experiment: as above; assay type: cell-based
Description: as §1

[15] = test system: Esherichia coli NIHJ JC-2; experiment: as above; assay type: cell-based
Description: as §1

[16] = test system: Pseudomonas aeruginosa SANK 71873; experiment: as above; assay type: cell-based
Description: as §1

[17] = test system: Pseudomonas aeruginosa SANK 70970; experiment: as above; assay type: cell-based
Description: as §1

[18] = test system: Pseudomonas acidovorans SANK 72782; experiment: as above; assay type: cell-based
Description: as §1

[19] = test system: Proteus mirabilis SANK 70461; experiment: as above; assay type: cell-based
Description: as §1

[20] = Solubility in water and organic solvents; assay type: physicochemical
[21] = test system: mice; experiment: Toxicity in mice, intravenous; assay type: in vivo

Compound | activity against gram-negative bacteria [1] | MIC [2] [µg/mL] | MIC [3] [µg/mL] | MIC [4] [µg/mL] | MIC [5] [µg/mL] | MIC [6] [µg/mL] | MIC [7] [µg/mL] | MIC [8] [µg/mL] | MIC [9] [µg/mL] | MIC [10] [µg/mL] | MIC [11] [µg/mL] | MIC [12] [µg/mL] | MIC [13] [µg/mL] | MIC [14] [µg/mL] | MIC [15] [µg/mL] | MIC [16] [µg/mL] | MIC [17] [µg/mL] | MIC [18] [µg/mL] | MIC [19] [µg/mL] | Solubility ([20]; acetone) | other results
CSCC[C@H](NC(=O)NC(Cc1cccc(O)c1)C(=O)O)C(=O)N[C@@H](C(=O)NC=C1CC(O)C(n2ccc(=O)[nH]c2=O)O1)C(C)N(C)C(=O)[C@@H](N)Cc1cccc(O)c1 (some centres unmarked) [Mureidomycin A, mureidomycin A] | active | 12.5 (≈ 14.9 µM) | 6.25 (≈ 7.43 µM) | 12.5 (≈ 14.9 µM) | 25 (≈ 29.7 µM) | 25 (≈ 29.7 µM) | 6.25 (≈ 7.43 µM) | 0.4 (≈ 0.476 µM) | 25 (≈ 29.7 µM) | > 200 | 100 (≈ 119 µM) | < 0.1 | 25 (≈ 29.7 µM) | 200 (≈ 238 µM) | > 200 | 6.25 (≈ 7.43 µM) | 12.5 (≈ 14.9 µM) | > 200 | > 200 | slightly soluble | Solubility ([20]; benzene): insoluble; Solubility ([20]; chloroform): insoluble; Solubility ([20]; ethyl acetate): insoluble; Solubility ([20]; methanol): Soluble; Solubility ([20]; water): Soluble; toxicity ([21]; mice, 400 mg/kg intravenously): No toxicity was observed
CSCC[C@H](NC(=O)NC(Cc1cccc(O)c1)C(=O)O)C(=O)N[C@@H](C(=O)N/C=C1\CC(O)C(N2CCC(=O)NC2=O)O1)C(C)N(C)C(=O)[C@@H](N)Cc1cccc(O)c1 (some centres unmarked) [Mureidomycin B, mureidomycin B] | active | 25 (≈ 29.7 µM) | 12.5 (≈ 14.8 µM) | 25 (≈ 29.7 µM) | 25 (≈ 29.7 µM) | 50 (≈ 59.3 µM) | 200 (≈ 237 µM) | 0.8 (≈ 0.949 µM) | 50 (≈ 59.3 µM) | > 200 | 200 (≈ 237 µM) | 0.2 (≈ 0.237 µM) | 50 (≈ 59.3 µM) | > 200 | > 200 | 25 (≈ 29.7 µM) | 25 (≈ 29.7 µM) | 200 (≈ 237 µM) | > 200 | slightly soluble | Solubility ([20]; benzene): insoluble; Solubility ([20]; chloroform): insoluble; Solubility ([20]; ethyl acetate): insoluble; Solubility ([20]; methanol): Soluble; Solubility ([20]; water): Soluble; toxicity ([21]; mice, 400 mg/kg intravenously): No toxicity was observed
CSCC[C@H](NC(=O)NC(Cc1cccc(O)c1)C(=O)O)C(=O)N[C@@H](C(=O)NC=C1CC(O)C(n2ccc(=O)[nH]c2=O)O1)C(C)N(C)C(=O)[C@H](Cc1cccc(O)c1)NC(=O)CN (some centres unmarked) [Mureidomycin C, mureidomycin C] | active | 1.56 (≈ 1.74 µM) | 1.56 (≈ 1.74 µM) | 3.13 (≈ 3.49 µM) | 12.5 (≈ 13.9 µM) | 3.13 (≈ 3.49 µM) | 1.56 (≈ 1.74 µM) | 0.4 (≈ 0.445 µM) | 3.13 (≈ 3.49 µM) | > 200 | 6.25 (≈ 6.96 µM) | < 0.1 | 3.13 (≈ 3.49 µM) | > 200 | > 200 | 1.56 (≈ 1.74 µM) | 1.56 (≈ 1.74 µM) | > 200 | > 200 | slightly soluble | Solubility ([20]; benzene): insoluble; Solubility ([20]; chloroform): insoluble; Solubility ([20]; ethyl acetate): insoluble; Solubility ([20]; methanol): Soluble; Solubility ([20]; water): Soluble; toxicity ([21]; mice, 400 mg/kg intravenously): No toxicity was observed
mureidomycin D | active | 6.25 | 6.25 | 6.25 | 25 | 12.5 | 6.25 | 1.56 | 6.25 | > 200 | 50 | 0.2 | 6.25 | > 200 | > 200 | 6.25 | 3.13 | 100 | > 200 | slightly soluble | Solubility ([20]; benzene): insoluble; Solubility ([20]; chloroform): insoluble; Solubility ([20]; ethyl acetate): insoluble; Solubility ([20]; methanol): Soluble; Solubility ([20]; water): Soluble; toxicity ([21]; mouse, in vivo, iv, 400 mg/kg): No toxicity was observed
